In PMC12040169 (PLOS Biology, 2025) one finds viability data, which are given here for 57 molecules.

Each structure is given as a SMILES string.

The data set in a line: in vitro. The following applies: human, hela cells, % viability.
What is called viability is a read-out of living cells in per cent, often relative to untreated cells. Take `COCCNC(=O)c1sc2ncn(CC(=O)Nc3ccccc3OC)c(=O)c2c1C` [CBK071846]: the viability at 28.5 h, 10 µM was 88.7%.

For the molecule `CC(C)c1cc(C(=O)N2C[C@H](C)N(Cc3ccco3)C[C@@H]2C)on1` [CBK283053], the viability at 28.5 h, 10 µM was 90.9%.

For `Cc1nn(-c2ccccn2)c(C)c1[C@@H]1C=C[C@@H](NS(C)(=O)=O)C1` [CBK289169], the viability at 28.5 h, 10 µM amounted to 86.8%.

Consider `Cc1ccc2[nH]nc(C(=O)NC(C)c3ccccn3)c2c1` (stereo not drawn) [CBK281887], for which the viability at 28.5 h, 10 µM turned out to be 69.9%.

Turning to `O=C(c1ccccc1Nc1cccc(C(F)(F)F)c1)N1CCN(c2ccccn2)CC1` [CBK012634], the viability at 28.5 h, 10 µM turned out to be 94.4%.

With `CCC(C)NC(=O)c1ccc2nccnc2c1` (stereo not drawn) [CBK268921], the viability at 28.5 h, 10 µM was 89.4%.

As for `COc1ccc(C(=O)N(C)C)cc1OC` [CBK015550], the viability at 28.5 h, 10 µM was determined as 115%.

As to `COc1ccc2oc(C(=O)NC(C)c3cn(C)nc3C)cc2c1` (stereo not drawn) [CBK281573], the viability at 28.5 h, 10 µM is 90.9%.

In the case of `c1coc(CNc2cncc(-c3cccs3)n2)c1` [CBK065630], the viability at 28.5 h, 10 µM came out at 96.6%.

Consider `O=C(NCCCN1CCOCC1)c1nn2c(C(F)(F)F)cc(-c3cccs3)nc2c1Cl` [CBK262553], for which the viability at 28.5 h, 10 µM is 82%.

On to `O=C(CCc1cccnc1)N1CCCc2ccccc21` [CBK200344], for which the viability at 28.5 h, 10 µM was 100%.

As to `O=C(Nc1ccccc1C(=O)N1CCCC1)c1cc(=O)[nH]c2ccccc12` [CBK295664], the viability at 28.5 h, 10 µM stood at 99.2%.

As for `Cc1cccn2c(=O)c(/C=C3\SC(=S)N(CC4CCCO4)C3=O)c(NCCCn3ccnc3)nc12` (stereo not drawn) [CBK263825], the viability at 28.5 h, 10 µM worked out at 119%.

`COc1ccc(NC(=O)Cc2csc(NC(C)=O)n2)cc1` [CBK287650]: the viability at 28.5 h, 10 µM amounted to 93.3%.

Consider `COc1ccccc1OCC(=O)NCc1ccc(-c2csnn2)cc1` [CBK149303], for which the viability at 28.5 h, 10 µM was found to be 99.5%.

Turning to `O=C(/C=C(O)/C(O)=C/C(=O)c1ccc(Cl)cc1)c1ccc(Cl)cc1` [CBK261428], the viability at 28.5 h, 10 µM stood at 102%.

For `c1cncc(COc2nc3ccccc3nc2N2CCCC2)c1` [CBK115762], the viability at 28.5 h, 10 µM worked out at 93.4%.

With `O=C(O)c1cccc(NC(=O)c2cccc(S(=O)(=O)N3CCc4ccccc4C3)c2)c1` [CBK265187], the viability at 28.5 h, 10 µM came to 108%.

As for `COc1ccccc1-n1c(C)c(C(C)=O)c2cc(O)ccc21` [CBK115320], the viability at 28.5 h, 10 µM is 86.3%.

Take `COc1ccc(N2CCN(C(=O)CCC(F)(F)F)CC2)cc1` [CBK091419]: the viability at 28.5 h, 10 µM was 100%.

As for `CC(=O)Nc1cnn(-c2ccc(C(=O)N3CCCCC3c3nc4ccccc4[nH]3)cc2)c1` (stereo not drawn) [CBK291109], the viability at 28.5 h, 10 µM is 83.3%.

For the molecule `Cc1cc(=O)n(CC(=O)NC(C)Cc2ccccn2)c2ccccc12` (stereo not drawn) [CBK281420], the viability at 28.5 h, 10 µM is 90.3%.

As for `CCC1=NC(c2ccccc2Cl)N(O)C1(C)C` (stereo not drawn) [CBK026466], the viability at 28.5 h, 10 µM came to 97.5%.

`Oc1ccc(/C=N/Nc2nnn[nH]2)c(O)c1` [CBK260972]: the viability at 28.5 h, 10 µM came out at 99%.

As to `COC(=O)c1c(C(C)(C)C)c(O)c2ccoc2c1OC` [CBK007577], the viability at 28.5 h, 10 µM was 94.2%.

For the molecule `COCCN(Cc1cnn(C)c1)C(=O)Cc1ccccn1` [CBK306576], the viability at 28.5 h, 10 µM is 112%.

On to `O=[N+]([O-])c1ccc(CN2CCC(N3CCN(CCO)CC3)CC2)cc1` [CBK264621G], for which the viability at 28.5 h, 10 µM was 92.6%.

Take `c1ccc(COc2ccccc2-c2cc(Nc3ccc4[nH]ccc4c3)ncn2)cc1` [CBK090856]: the viability at 28.5 h, 10 µM was 107%.

Turning to `Cc1cc(C)nc(N2CCC(C(=O)NCc3ccc(Cl)cc3)CC2)n1` [CBK136319], the viability at 28.5 h, 10 µM was determined as 94.8%.

With `O=C(NCc1cccs1)N1CCCN(Cc2ccc(F)cc2)CC1` [CBK306294], the viability at 28.5 h, 10 µM turned out to be 97.4%.

Consider `O=C1CC2(CCC3C(C(=O)N4CCCCC4)C32)Oc2ccccc21` (stereo not drawn) [CBK284947], for which the viability at 28.5 h, 10 µM turned out to be 105%.

For the molecule `O=C(Nc1ccccc1Cl)N1CCN(c2ccc(F)cc2)CC1` [CBK117849], the viability at 28.5 h, 10 µM is 95.7%.

As for `Cc1cc(C)c(NS(=O)(=O)c2ccc(NC(=S)Nc3ccc(S(N)(=O)=O)cc3)cc2)c(C)c1` [CBK267005], the viability at 28.5 h, 10 µM was found to be 94.2%.

Take `N#Cc1ccc(C(=O)N2Cc3nc[nH]c3C[C@H]2c2nc(-c3ccncc3)no2)cc1` [CBK288963]: the viability at 28.5 h, 10 µM worked out at 117%.

With `CCc1nnc(CN2CCCC(c3cc(C(N)=O)[nH]n3)C2)o1` (stereo not drawn) [CBK305213], the viability at 28.5 h, 10 µM stood at 74.5%.

`CSCCN1CCC2(CC1)CN(CCO)c1ccccc12` [CBK126771]: the viability at 28.5 h, 10 µM is 94.6%.

As for `CCCS(=O)(=O)NC(C)c1cnn(-c2ccc(OC)cc2)c1C` (stereo not drawn) [CBK307319], the viability at 28.5 h, 10 µM is 115%.

As to `Cc1cc(OCC(=O)N2CCC(C(=O)Nc3ccccc3)CC2)no1` [CBK305067], the viability at 28.5 h, 10 µM was 99.5%.

On to `Cc1ccc(S(=O)(=O)NCCSCc2ccc(Cl)cc2)cc1[N+](=O)[O-]` [CBK264056], for which the viability at 28.5 h, 10 µM came out at 104%.

`O=S1(=O)c2cc(/N=C/c3c(O)ccc4ccccc34)ccc2-c2ccc(/N=C/c3c(O)ccc4ccccc34)cc21` [CBK261240]: the viability at 28.5 h, 10 µM came to 84.7%.

As for `CC(NC(=O)C1CC(=O)N(Cc2ccccn2)C1)c1ccc(F)cc1` (stereo not drawn) [CBK304552], the viability at 28.5 h, 10 µM came out at 97.1%.

As to `OC/C=C/c1cnc2ccccc2c1` [CBK001749], the viability at 28.5 h, 10 µM turned out to be 119%.

In the case of `COc1ccc(Cl)cc1NC(=O)C1CCCN1S(=O)(=O)c1ccc(F)cc1` (stereo not drawn) [CBK069866], the viability at 28.5 h, 10 µM is 108%.

On to `Nc1ncnc2c1[nH]c(=O)n2[C@H]1C[C@@H](O)[C@@H](CO)O1` [CBK201284], for which the viability at 28.5 h, 10 µM is 98.3%.

On to `NC(=S)NC(=O)CN1C(=O)c2ccccc2C1=O` [CBK264111], for which the viability at 28.5 h, 10 µM was 90.9%.

As for `Cc1cn([C@H]2C[C@@H](O)[C@@H](CI)O2)c(=O)[nH]c1=O` [CBK201197], the viability at 28.5 h, 10 µM was determined as 96.9%.

`Cc1cccc(C2(c3cccc(C)c3)CC2C(=O)NCc2cccnc2)c1` (stereo not drawn) [CBK262382]: the viability at 28.5 h, 10 µM worked out at 106%.

`N#Cc1ccc(OCC(=O)Nc2cccnc2-n2cncn2)cc1` [CBK306004]: the viability at 28.5 h, 10 µM is 85.9%.

As to `CCOC(=O)c1c(C)nc2n(CCN3CCCCC3)c3ccccc3n12` [CBK278238C], the viability at 28.5 h, 10 µM was found to be 91.3%.

`O=C(O)c1ccccc1-c1ccccc1C(=O)Nc1ccc(O)cc1` [CBK286602]: the viability at 28.5 h, 10 µM came to 85.1%.

As to `COc1cc(-c2cnc(N)c(NCc3ccncc3)n2)cc(OC)c1OC` [CBK063646], the viability at 28.5 h, 10 µM was determined as 94.8%.

Take `COc1c(C(=O)O)cc(C)c2c1CCC2C` (stereo not drawn) [CBK013617]: the viability at 28.5 h, 10 µM came out at 101%.

With `O=C(Nc1cccc(C(=O)O)c1)/C(=C\c1ccc2c(c1)OCO2)NC(=O)c1ccc(Br)o1` [CBK263720], the viability at 28.5 h, 10 µM was determined as 99%.

As for `O=C(O)c1cc(NC(=O)c2ccco2)cc(NC(=O)c2ccco2)c1` [CBK263388], the viability at 28.5 h, 10 µM is 91.8%.

As for `NC(=O)CN1CCC(Oc2nccnc2OCC2COc3ccccc3O2)CC1` (stereo not drawn) [CBK082987T], the viability at 28.5 h, 10 µM was determined as 92.1%.

Turning to `CC1CCN(C(=S)Nc2ccccc2)CC(C)(C)C1` (stereo not drawn) [CBK006185], the viability at 28.5 h, 10 µM was found to be 93.9%.

`O=C(NCCN1CCC(O)(c2ccc(F)cc2)CC1)c1ccco1` [CBK283166]: the viability at 28.5 h, 10 µM is 99.3%.
